Assay results reported in patent US8192734B2, “Compositions and methods for bone strengthening” (Cornell University, priority 2007, dated 2012).

Key:
rats = settings: cited from earlier work
mice = settings: cited from earlier work
[1] = system: pigs fed P-adequate corn-soybean meal basal diet; assay: Expt 2: metatarsal and femur mineral concentrations (ICP); type: in vivo, pig
Protocol: After the breaking strength analysis, samples (˜100 to 200 mg) of metatarsals in both experiments and femur in Experiment 2 from the right legs were used for mineral analysis. Cortical bones were isolated after removing attached connective tissue using a stainless steel scalpel and collecting individual shards using needle-nosed pliers with plastic-covered clamps. […] Concentrations of individual elements in the dried bone samples were measured using inductively coupled argon plasma spectrophotometer (ICAP 61E Trace Analyzer, Thermo Jarell Ash corporation, Franklin, Mass.)(31). Samples were digested in a mixture of HNO3 and HClO4 (9:1, vol/vol), and then diluted in 5% HNO3 before analysis.

[2] = system: pigs fed P-adequate corn-soybean meal basal diet; assay: Expt 2: metatarsal and femur breaking strength, three-point bending test; type: in vivo, pig; settings: main effect, phytase 2,000 U/kg or Sr 50 mg/kg
Protocol: Third and 4th metatarsals in both experiments and femur (right leg) in Experiment 2 were prepared by manually removing surrounding skin, muscle and other tissues. Bones were stored in closed plastic bags at 4° C. until strength analysis. Maximal breaking load was measured using an Instron 4500 Machine (Canton, Mass.) at room temperature (23° C.) by subjecting each bone to a three-point bending test^(28). During mechanical tests, force was applied to the center of the bone held by supports 2.0 cm apart for metatarsals and 3.3 cm apart for femur. The crosshead speed was set at 50 mm/min and the sample rate was 10 points/s. Final strength was determined from load-displacement curves indicating the maximum loads. The metatarsal breaking strength was expressed as the mean strength of four bones from both left and right feet of pigs in Experiment 1, and as the mean of the two bones from the right foot of pigs in Experiment 2.

[3] = system: pigs fed P-adequate corn-soybean meal basal diet; assay: Expt 2: BMC, BMD and bone area by dual energy X-ray absorptiometry; type: in vivo, pig; settings: main effect, phytase 2,000 U/kg or Sr 50 mg/kg
Protocol: In Experiment 2, bone mineral content (BMC, g) and bone mineral density (BMD, g/cm^2) of 3rd and 4th metatarsals from the left foot and femur from the left leg of each pig were measured. After being thawed to room temperature, entire bones were placed on a rice bag (to remove background effects) and scanned by dual energy X-ray absorptiometry using the GE Lunar Prodigy instrument (GE Lunar, Prodigy, Madison Wis.) in the small animal scan mode. Values of BMC and BMD were predicted by analysis of scans using Prodigy software (version 10.10.038).

[4] = system: pigs fed P-adequate corn-soybean meal basal diet; assay: Expt 2: femur geometrical and strength properties; type: in vivo, pig; settings: phytase 2000 U/kg and/or Sr 50 mg/kg, n=6
Protocol: A three-point bending test was conducted on the dissected bones to generate load-deformation curves with an Instron Model 5566 (Norwood, Mass.). Mechanical properties of bones were calculated using formula as previously described^(29). Bone cross sections were cut at the mid-point of loading and used to determine area moment of inertia. Cross sections were submersed for 5 min in a 0.4 mol/L sodium hypochlorite solution to remove periosteum and marrow tissue, and then embedded in blue clay (Play-Doh, Hasbro, Pawtucket, R.I.) to prevent depth-of-field distortions and to enhance contrasts. The embedded sections were scanned with a flat-bed scanner (Epson Perfection Model 3490, Long Beach, Calif.) and analyzed using Image J software (30) to measure the x-y coordinates of bone pixels.

[5] = main effect of Sr 50 mg/kg, P<0.0001
[6] = phytase 2000 U/kg and/or Sr 50 mg/kg, n=6

## [I-].[I-].[Sr+2] [strontium iodide]
rats
  LD50: 800 mg/kg body weight

## [Cl-].[Cl-].[Sr+2] [strontium chloride]
mice
  LD50: 147.6 mg/kg body weight

## strontium acetate
rats
  LD50: 1.16 mmol/kg

## [Br-].[Br-].[Sr+2] [strontium bromide]
rats
  LD50: 1 g/kg body weight

## O=C([O-])[O-].[Sr+2] [Sr, SrCO3]
[1]; [5]
  elevation of metatarsal concentration of Sr: 4 fold
  enhancement of femur concentration of Sr: 3.9 fold
[1]; [6]
  femur Cr concentration: 7.0 mg/kg
  femur Fe concentration: 6.9 mg/kg
  femur Mg concentration: 5.4 g/kg
  femur Mn concentration: 0.6 mg/kg
  femur Na concentration: 8.0 g/kg
  femur P concentration: 176.3 g/kg
  femur S concentration: 1.1 g/kg
  femur Sr concentration: 418.9 mg/kg
  femur Zn concentration: 209.6 mg/kg
  metatarsal Cr concentration: 26.6 mg/kg
  metatarsal Fe concentration: 23.5 mg/kg
  metatarsal Mg concentration: 3.5 g/kg
  metatarsal Mn concentration: 2.8 mg/kg
  metatarsal Na concentration: 6.8 g/kg
  metatarsal P concentration: 88.1 g/kg
  metatarsal S concentration: 1.0 g/kg
  metatarsal Sr concentration: 330.6 mg/kg
  metatarsal Zn concentration: 146.8 mg/kg
[2]
  improvement in breaking strength of femur: 10%
  improvement in breaking strength of metatarsals: 11%
[3]
  elevation of BMD of the two bones (metatarsal, femur): 6%
  enhancement of BMC in both bones (metatarsal, femur): 6 to 8%
[4]
  femur Cross-sectional area: 151 mm^2
  femur Cross-sectional radius: 9.0 mm
  femur Maximum bending moment: 2286 kg × mm
  femur Maximum stress: 4.3 kg/mm^2
  femur Modulus of elasticity: 50 kg/mm^2
  femur Moment of inertia: 4891 mm^4
  femur Strain: 0.05
  femur Yield bending moment: 1384 kg-mm
  femur Yield stress: 2.6 kg/mm^2
